What was measured:
Mushroom tyrosinase [1] = target: T1, Mushroom tyrosinase (Agaricus bisporus, UniProt O42713+Q00024+C7FF04+C7FF05); assay: Inhibition of mushroom Tyrosinase; assay type: protein assay
Tyrosinase [2] = target: T2, Tyrosinase (Homo sapiens, UniProt P14679); assay: Binding affinity to human Tyrosinase assessed as inhibition constant
T2 sequence (P14679 whole entry): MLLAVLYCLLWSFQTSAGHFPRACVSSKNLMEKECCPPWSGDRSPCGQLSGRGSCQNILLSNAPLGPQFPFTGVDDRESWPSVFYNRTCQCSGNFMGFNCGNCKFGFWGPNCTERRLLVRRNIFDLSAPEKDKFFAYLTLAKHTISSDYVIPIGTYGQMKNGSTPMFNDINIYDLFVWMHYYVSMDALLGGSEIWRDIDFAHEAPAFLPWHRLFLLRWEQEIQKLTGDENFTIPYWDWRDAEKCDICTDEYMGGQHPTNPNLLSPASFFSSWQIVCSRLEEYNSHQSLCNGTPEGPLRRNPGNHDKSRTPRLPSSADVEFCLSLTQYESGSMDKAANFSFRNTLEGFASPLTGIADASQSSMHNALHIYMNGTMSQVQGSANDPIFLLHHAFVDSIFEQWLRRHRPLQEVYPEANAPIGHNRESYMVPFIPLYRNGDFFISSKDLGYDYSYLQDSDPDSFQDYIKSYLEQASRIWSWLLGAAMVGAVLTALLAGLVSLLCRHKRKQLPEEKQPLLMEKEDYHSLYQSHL

[3] = Inhibition of Bacterial Tyrosinase; set-up: species or system Bacteria
Mushroom tyrosinase [4] = target: T1, Mushroom tyrosinase; assay: Binding affinity to mushroom Tyrosinase using L-DOPA as substrate assessed as inhibition constant by Michaelis-Menten analysis; assay type: protein assay
Tyrosinase [5] = target: T2, Tyrosinase; assay: Inhibition of human tyrosinase using L-DOPA as substrate by spectrophotometer analysis
Mushroom tyrosinase [6] = target: T1, Mushroom tyrosinase; assay: Inhibition of mushroom Tyrosinase by using L-DOPA as substrate by spectrophotometric assay; assay type: protein assay
Mushroom tyrosinase [7] = target: T1, Mushroom tyrosinase; assay: Inhibition of mushroom Tyrosinase using L-DOPA as substrate assessed as inhibition constant by Michaelis-Menten analysis; assay type: protein assay
[8] = Binding affinity to bacterial Tyrosinase assessed as inhibition constant; set-up: species or system Bacteria
[9] = Binding affinity to Mushroom Tyrosinase assessed as inhibition constant
[10] = Biniding affinity to bacterial Tyrosinase assessed as inhibition constant; set-up: species or system Bacteria
[11] = Inhibition of human Tyrosine kinase

NC(=S)N/N=C/c1cc(=O)c(O)co1
IC50 (Mushroom tyrosinase [1]): 10 µM
Ki (Tyrosinase [2]): 260 µM
IC50 [3]: 1.6 µM

CC(C)c1ccccc(=O)c1O [ALPHA-THUJAPLICIN]
Ki (Mushroom tyrosinase [4]): 9.5 µM
IC50 (Tyrosinase [5]): > 1000 µM

COc1ccccc1/C=C/C=N/Nc1nnc(SCc2cc(=O)c(O)co2)n1N
IC50 (Mushroom tyrosinase [6]): 7.5 µM

O=c1cc(CSC2CCCCC2)occ1O
IC50 (Mushroom tyrosinase [1]): 0.087 µM

CCCCCCCCn1cc(O)c(=O)cc1C=O
IC50 (Mushroom tyrosinase [1]): 7.8 µM

COc1ccc(C(=O)OCc2cc(=O)c(O)co2)cc1
IC50 (Mushroom tyrosinase [1]): 2 µM

O=c1oc2ccc(O)cc2cc1O
IC50 (Mushroom tyrosinase [7]): 10 µM

N[C@@H](Cn1ccc(=O)c(O)c1)C(=O)O [L-MIMOSINE]
Ki [8]: 54 µM
Ki [9]: 8 µM

CN(C)c1ccc(-c2nnc(SCc3cc(=O)c(O)co3)nc2-c2ccc(N(C)C)cc2)cc1
IC50 (Mushroom tyrosinase [6]): 0.34 µM

O=C(/C=C/c1ccc2c(c1)OCO2)OCc1cc(=O)c(O)co1
IC50 (Mushroom tyrosinase [1]): 1.4 µM

O=c1cc(CSc2nc3ccccc3s2)occ1O
IC50 (Mushroom tyrosinase [6]): > 3 µM

O=C1/C(=C/c2ccc(=O)n(O)c2)Oc2cccc(O)c21
Ki (Mushroom tyrosinase [4]): 1.02 µM

O=c1cc(CSCCCCSCc2cc(=O)c(O)co2)occ1O
IC50 (Mushroom tyrosinase [1]): 3 µM

O=c1ccc(CO)cn1O
Ki [10]: 4.1 µM

CC(C)c1ccc(O)c(=O)cc1 [GAMMA-THUJAPLICIN]
Ki (Mushroom tyrosinase [4]): 0.07 µM

O=c1cc(CO)occ1O [KOJIC ACID]
IC50 [11]: 31 µM

CCOC(=O)/C=C/c1cc(=O)c(O)co1
IC50 (Mushroom tyrosinase [1]): 36 µM

Cc1c(O)c(=O)ccn1C [DEFERIPRONE]
IC50 (Mushroom tyrosinase [1]): 30 µM

N[C@@H](Cc1ccc(=O)n(O)c1)C(=O)O
Ki [10]: 39 µM

O=C(CCNC(=O)OCc1cc(=O)c(O)co1)OCc1cc(=O)c(O)co1
IC50 (Mushroom tyrosinase [1]): 7 µM

— ChEMBL document CHEMBL5634078, “Catechol-mimicking transition-state analogues as non-oxidizable inhibitors of tyrosinases” (Eur J Med Chem, 2023)
